We go through 1 compound from patent US20130281512A1, “AGENTS FOR TREATING DISORDERS INVOLVING MODULATION OF RYANODINE RECEPTORS” (LES LABORATOIRES SERVIER, priority 2012, published 2013).

Where two headings read alike, the source gives them in different places.

The nature of data set [1]: Metabolic stability in mouse microsomes (% remaining). In kind it is in vitro ADME. Here is the method:
0.1M Tris HCl buffer at pH 7.4 containing 5 mM EDTA.
To a 50 mL falcon tube containing 2.79 mL of dilution buffer were added 0.429 mL of NADPH-regenerating soln. A and 0.079 mL of NADPH-regenerating soln. B […]
[…] A 50 mL falcon tube containing 3.32 mL of dilution buffer was prewarmed at 37° C. for 15 min. (at least 10 min.) 0.178 mL of microsome (24.6 mg/mL) were added to the prewarmed dilution buffer. The protein concentration of this microsome preparation was 1.25 mg/mL.
Sample (Test Compound)—Original and Intermediate Stock Solutions:
100 μM intermediate solution of the test compound from the original stock solution were prepared using the dilution buffer. A 5 μM solution was prepared by diluting the 100 μM intermediate solution using dilution buffer.
(The experiments were conducted in 1.5 mL eppendorf micro centrifuge tubes) 0 minutes incubation. Procedure: a. Add 100 μL of prewarmed microsomes b. Add 50 μL of 5 μM solution of the test compound. c. Add 500 μL of cold stop solution (ice cold Methanol) d. Add 100 μL of NADPH cofactor solution to the eppendorf. a. Vortex mix the eppendorf. […]
b. Add 100 μL of NADPH cofactor solution to the eppendorf. c. Add 50 μL of 5 μM solution of the test compound. d. Add 100 μL of prewarmed microsomes e. Incubate the eppendorf at 37° C. 300 rpm for ‘t’ min. on a thermomixer. f. Remove the eppendorf from thermomixer g. Add 500 μL of cold stop solution (ice cold Methanol) h. Vortex mix the eppendorf.
Both the ‘0’ and ‘t’ minutes incubated samples were centrifuged at 15, 000 rcf at 4° C. for 15 min. 500 μL of the supernatant solution was removed and subject it to LC/MS analysis (SIM—Selected Ion Monitoring) […]
Results are expressed as % test compound remaining=(MS Area response of T min sample/MS Area response of ‘0’ min sample)*100. The MS area used is an average of duplicate injections.
Time points=0, 15, 30 and 60 min. for each test compound
2 μM Imipramine—5 min. and 2 μM Imipramine—15 min. incubation was used as a positive control for the rat and mouse liver microsome stability experiments.

For the next data set, the system named is mdx mice. Briefly: Muscle function in mouse muscular dystrophy model (mdx): voluntary wheel activity, EDL specific force. In kind it is in vivo. Here is the method: (§1) Voluntary activity on wheel, body weight, and average water consumption were measured in the first 3 weeks. Specific muscle force was measured after 4 weeks of treatment, at the end of the study.
(§2) Distance traveled (Km/day) over a 24 hr period was analyzed as an index of improved functional activity (see, DMD_M.2.1.002 SOP at http://www.treat-nmd.eu/). At the conclusion of the study, Extensor digitorum longus (EDL) muscle was isolated for muscle force analysis as further described hereinbelow. Blood was collected from each mouse by retro-orbital bleeds at the end of the study (after end of dark cycle—about 7 AM) to assess drug plasma concentrations. Experiments were blinded.
At the end of the study, EDL muscle was dissected from hind limbs for isometric force analysis using the 407A Muscle Test System from Aurora Scientific (Aurora, Ontario, Canada). A 6-0 suture were tied to each tendon and the entire EDL muscle, tendon to tendon, was transferred to a Ragnoti bath of O2/CO2 (95%/5%) bubbled Tyrode solution (in mM: NaCl 121, KCl 5.0, CaCl2 1.8, MgCl2, NaH2PO4, NaHCO3 24, and glucose 5.5). Using the sutures, one tendon was tied vertically to a stainless steel hook connected to a force transducer The other sutured tendon was clamped down into a moving arm on the Aurora system. The EDL muscle was stimulated to contract using an electrical field between two platinum electrodes. At the start of each experiment, muscle length was adjusted to yield the maximum force. Force-frequency relationships were determined by triggering contraction using incremental stimulation frequencies (5-250 Hz for 200 ms at suprathreshold voltage). Between stimulations the muscle was allowed to rest ˜3 min. At the end of the force measurement, the length (Lo) of the EDL muscle while sutured in the Aurora system was measured excluding the tendons. The EDL muscle was then removed from the system and weighed after clipping the end tendons and sutures off. The EDL muscle was then frozen in liquid nitrogen. The cross-sectional area (mm^2) of the EDL muscle was calculated by dividing the EDL muscle weight by the EDL muscle length and the mammalian muscle density constant of […] (Yamada, T., et al. Arthritis and rheumatism 60:3280-3289). To determine EDL specific force (kN/m^2), the absolute tetanic force was divided by the EDL muscle cross-sectional area.
For statistical analysis of distance traveled, change from baseline was calculated for each day by subtracting the baseline value (defined as the mean of the two measurements obtained on Day −1 and Day −2) from each post dose assessment. Change from baseline was then statistically analyzed with a repeated measures analysis of variance model with fixed effects for treatment, day and treatment by day interaction. Baseline was included as a covariate and mouse was included as a random effect. The most appropriate covariance structure was determined through investigation of the Akaike's Information Criterion (AIC) and Bayesian Information Criterion (BIC). The covariance structures investigated were autoregressive, compound symmetry, unstructured, and toeplitz. The optimal covariance structure selected was compound symmetry. From the model, point estimates and associated 95% confidence intervals (CI) for the difference in change from baseline between each ARM210 treated mice group and vehicle treated group (for both mdx and C57BL/6 mice) were obtained for each day, each week, and the entire assessment period from Day 1 to Day 19. As this study is exploratory in nature, no adjustments in multiple comparisons were made.
Specific force was analyzed using a repeated measures analysis of variance model with fixed effects for treatment, frequency and treatment by frequency interaction and mouse as a random effect. Similar to the analysis described above, the optimal covariance structure was chosen from among autoregressive, compound symmetry, unstructured, and toeplitz. […]

For a further data set, the system named is WT mice. Description: Voluntary wheel activity and EDL specific force in WT (C57BL/6) mice. The note with it: 50 mg/kg/d. In kind it is in vivo, mouse. Here is the method:
as §1, §2
At the end of the study, EDL muscle was dissected from hind limbs for isometric force analysis using the 407A Muscle Test System from Aurora Scientific (Aurora, Ontario, Canada). […] Force-frequency relationships were determined by triggering contraction using incremental stimulation frequencies (5-250 Hz for 200 ms at suprathreshold voltage). […] At the end of the force measurement, the length (Lo) of the EDL muscle while sutured in the Aurora system was measured excluding the tendons. […] The cross-sectional area (mm^2) of the EDL muscle was calculated by dividing the EDL muscle weight by the EDL muscle length and the mammalian muscle density constant of […] (Yamada, T., et al. Arthritis and rheumatism 60:3280-3289). […]

Data set [2] is described as follows: Morning blood exposure (drug plasma concentrations) in mdx and WT mice. The format is in vivo. The settings on record: mouse, oral, read-out: Morning blood exposure (average±SEM). Here is the method: as §2
[3] abbreviates: mdx and WT mice, drinking water.

Consider `COc1ccc2c(c1)CN(Cc1ccc(C(=O)O)cc1)CCS2` [Compound 1, 4-((7-Methoxy-2,3-dihydrobenzo[f][1,4]thiazepin-4(5H)-yl)methyl)benzoic acid], for which the “% remaining” value in data set [1] (15 min) turned out to be 99%; in data set [1] (30 min) it was 98%; in data set [1] (1 h), 82%. Moreover, the body weight result in the data set with mdx mice (setting [3]) is “did not affect”. Besides, the water consumption result with mdx mice (setting [3]) is “No dose-dependent effects”. Moreover, the “specific muscle force (EDL)” value in the data set on mdx mice (mdx mice, 50 mg/kg/d, stimulation frequencies of 150 Hz and above, P<0.05) is listed as “statistically significant increase”; in the data set with WT mice (4 weeks), “No effect”. The “specific force of EDL muscle” value with mdx mice (mdx mice, 5, 10 and 50 mg/kg/d, 4 weeks) is “increased specific force in mdx muscle dose-dependently”. For the same compound, the “distance traveled on voluntary wheel” value in the data set with mdx mice (mdx mice, 10 and 50 mg/kg/d (target dose) sodium salt in drinking water, day 1 to day 19, vs vehicle, P<0.001) is “significantly longer distances”. Moreover, in the data set with mdx mice (mdx mice, drinking water), the “time to treatment effect on wheel activity after treatment initiation” value lay in the range of 2 to 3 days. In addition, in the data set with WT mice, the “travel distance on voluntary wheel” value is reported as “No effect”. Further, the concentration at 4 weeks turned out to be 72.8 ± 7 µM in data set [2] (C57BL/6 (WT), 50 mg/kg/d-dosed WT mice); 3.3 ± 0.4 µM in data set [2] (C57BL/10ScSn-DMD^mdx/J (mdx), 5 mg/kg/d-dosed mdx mice); 10.7 ± 0.9 µM in data set [2] (C57BL/10ScSn-DMD^mdx/J (mdx), 10 mg/kg/d-dosed mdx mice); 52.8 ± 1.7 µM in data set [2] (C57BL/10ScSn-DMD^mdx/J (mdx), 50 mg/kg/d-dosed mdx mice).
